pIC50: −log10 of the molar value. Like-named read-outs stand apart in the source and are kept apart here.
Columns and labels:
[1] = system: traumatic brain injury model SD rats; assay: Measurement of brain injury protection, traumatic brain injury model (modified Feeney method); type: in vivo
Procedure: 45 male SD rats (6 to 8 weeks old) (SPF (Beijing) Biotechnology Co., Ltd.) were divided into the sham group, blank solvent group, and dosing group. 72 hours after intraperitoneally injecting the compound of Example 12 or blank solvent, a traumatic brain injury model was established using the modified Feeney method (Marmarou A, Foda M A, van den Brink W, et al., A new model of diffuse brain injury in rats. Part I: Pathophysiology and biomechanics. Journal of Neurosurgry, 1994, 80(2):291 to 300.). 23 hours after model establishment, three […] in each group were injected with Evans blue solution through the tail vein, and after 1 hour of circulation, the mice were decapitated and the brain was taken out to determine the content of Evans blue (EB), so as to study the permeability. Another three rats were taken to measure the water content in brain.

[2] = system: lipopolysaccharide-injected KM mice, forced swimming test; assay: Measurement of antidepressant effect, lipopolysaccharide / forced swimming test; type: in vivo; conditions: subcutaneous injection 23 hours after lipopolysaccharide, test 1 hour later, FIG. 7
Procedure: Male KM mice (6 to 8 weeks old) (SPF (Beijing) Biotechnology Co., Ltd.) swam in advance for 10 min, and were injected with lipopolysaccharide (0.5 mg/kg). After 23 hours, the mice were subcutaneously injected with the solutions of the compounds of Examples 12 and 40 or the blank solvent. After 1 hour, the mice were subjected to the forced swimming test for 6 min, and the immobility time (s) in later 4 minute for the mice in each group was recorded.

[3] = target: T1, sEH enzyme (human recombinant) (Homo sapiens, UniProt P34913); assay: in vitro IC50 of soluble epoxide hydrolase (sEH) by fluorescence analysis; type: biochemical
T1 construct: purchased Cayman Chemical
T1 sequence (P34913 1-555): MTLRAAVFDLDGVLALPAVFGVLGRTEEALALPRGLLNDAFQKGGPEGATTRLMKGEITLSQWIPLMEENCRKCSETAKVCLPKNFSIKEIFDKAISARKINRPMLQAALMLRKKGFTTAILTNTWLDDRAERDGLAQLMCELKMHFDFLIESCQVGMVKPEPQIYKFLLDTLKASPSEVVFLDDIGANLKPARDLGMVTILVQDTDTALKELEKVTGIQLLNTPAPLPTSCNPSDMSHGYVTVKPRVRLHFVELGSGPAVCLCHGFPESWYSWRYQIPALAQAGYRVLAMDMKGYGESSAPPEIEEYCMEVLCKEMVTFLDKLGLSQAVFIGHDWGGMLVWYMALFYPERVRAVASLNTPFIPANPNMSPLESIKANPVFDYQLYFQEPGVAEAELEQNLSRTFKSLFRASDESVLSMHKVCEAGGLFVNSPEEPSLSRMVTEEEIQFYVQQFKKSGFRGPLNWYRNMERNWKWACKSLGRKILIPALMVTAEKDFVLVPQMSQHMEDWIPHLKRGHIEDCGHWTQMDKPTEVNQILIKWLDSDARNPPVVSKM
Procedure: The benzothiazole skeleton compounds according to the above formula I of the present invention were tested for the in vitro sEH enzyme activity by fluorescence analysis. […] 12 μL of sEH enzyme (human recombinant, 0.5 mg/mL, Cayman Chemical) was diluted with 588 μL of buffer (25 mM bis-Tris, pH 7.0). […] The inhibitions at different concentrations for the compound were respectively measured in accordance with the inhibition assay, to calculate IC50.

[4] = target: T1, sEH enzyme (human recombinant); assay: in vitro sEH enzyme activity by fluorescence analysis, single concentration inhibition; type: biochemical; conditions: read-out: sEH % inhibition, @ 0.1 μM
Procedure: The benzothiazole skeleton compounds (concentration: 0.1 μM) according to the above formula I of the present invention were tested for the in vitro sEH enzyme activity by fluorescence analysis.
12 μL of sEH enzyme (human recombinant, 0.5 mg/mL, Cayman Chemical) was diluted with 588 μL of buffer (25 mM bis-Tris, pH 7.0). The fluorescent substrate was PHOME (cyano-(6-methoxy-naphthalen-2-yl)-methyl (3-phenyl-oxiranyl)-acetate) in DMSO (10 μM, Cayman Chemical). The compound to be tested was dissolved in 100% DMSO at a concentration of 4 μM. 185 μL of buffer (25 mM bis-Tris, pH 7.0), 5 μL of compound solution, and 5 μL of diluted sEH enzyme were added to the wells of a 96-well plate, and finally 5 μL of substrate solution was added to initiate the reaction. After incubating at 37° C. for 15 min, the fluorescence signal was measured with a microplate reader (excitation wavelength 330 nm, emission wavelength 465 nm).
Inhibition (%)=(F0−F1)/(F0)×100.

[5] = system: carrageenan-induced paw swelling in KM mice; assay: Measurement of anti-inflammatory effect, carrageenan-induced paw swelling; type: in vivo; conditions: intraperitoneal injection 1 hour before carrageenan, FIG. 3
Procedure: 1 hour in advance, the mice were intraperitoneally injected with the solutions of the compounds of Examples 12, 18, 27, and 40 (10% PEG 400, 10% Tween 80) or the blank solvent, respectively. Taking the initial paw thickness of the mice before modeling as 100%, the changes in the paw thickness of the mice were measured.

[6] = system: carrageenan inflammatory pain model SD rats; assay: Measurement of analgesic effect, carrageenan inflammatory pain model, hot plate; type: in vivo; conditions: intragastric suspension 15 mg/mL, 1 hour before modeling, FIG. 6
Procedure: Male SD rats (6 to 8 weeks old) (SPF (Beijing) Biotechnology Co., Ltd.) were subcutaneously injected with 50 μL of 1% λ-carrageenan saline solution at planta to prepare an inflammatory pain model (Rose T E, Morisseau C, Liu J Y, et al. 1-Aryl-3-(1-acylpiperidin-4-yl)urea inhibitors of human and murine soluble epoxide hydrolase: structure-activity relationships, pharmacokinetics, and reduction of inflammatory pain. J Med Chem, 2010, 53(19): 7067-7075). The compounds of Examples 12 and 40 were added to 0.5% sodium carboxymethylcellulose solution and ground to prepare a suspension with a concentration of 15 mg/mL. 1 hour before modeling, the rats were intragastrically administrated. The changes in the paw withdrawal time of rats were measured with a hot plate dolorimeter.

[7] = system: streptozotocin STZ diabetic model Balb/c mice; assay: Measurement of hypoglycemic effect, streptozotocin diabetic model; type: in vivo; conditions: intraperitoneal once a day, after two weeks, FIG. 4
Procedure: Male Balb/c mice (6 to 8 weeks old) (SPF (Beijing) Biotechnology Co., Ltd.) were intraperitoneally injected with streptozotocin STZ (40 mg/kg) once a day for 5 consecutive days, to prepare a diabetic model (Like A A, Rossini A A. Streptozotocin-induced pancreatic insulitis: new model of diabetes mellitus. Science, 1976, 193(4251):415-7). The mice after modeling were intraperitoneally injected with the solution of compound of Example 12 once a day.

[8] = system: STZ-induced retinopathy model Wistar rats; assay: Improvement effect on diabetic retinopathy, STZ-induced retinopathy model; type: in vivo; conditions: 0.1% eye drops topically every day, after 6 months, FIG. 5
Procedure: Male Wistar rats (180 to 200 g) (Experimental Animal Center, Hebei Medical University) were intraperitoneally injected with streptozotocin STZ (60 mg/kg) to prepare a diabetic model, and were fed for 3 months to induce a retinopathy model (Miyamoto K, Khosrof S, Bursell S E, et al. Prevention of leukostasis and vascular leakage in streptozotocin-induced diabetic retinopathy via intercellular adhesion molecule-1 inhibition. Proc Natl Acad Sci USA, 1999, 96(19): 10836-10841). The compound of Example 40 was dissolved in 10% hydroxypropyl-p-cyclodextrin solution, to be prepared into eye drops with a content of 0.1% for the compound of Example 40. The rats were topically administrated in eyes every day.

SMILES	Water content in brain (%) ([1]; 30 mg/kg intraperitoneal, 72 hours before traumatic brain injury, * p < 0.05 vs blank solvent group)	EB content (μg/g) ([1]; 30 mg/kg intraperitoneal, Evans blue in brain, 24 hours after model, * p < 0.05 vs blank solvent group)	water content in brain (in words) ([1]; traumatic brain injury rats, text summary of Table 4)	immobility time in forced swimming [2]	pIC50 ([3]; human recombinant sEH, PHOME substrate, read-out: IC50)	inhibition at 0.1 µM [4] [%]	carrageenan-induced paw swelling (paw thickness) [5]	effect on paw swelling compared with celecoxib [5]	paw withdrawal time in hot plate dolorimeter [6]	blood glucose [7]	glucose tolerance [7]	pIC50 [3]	inhibition at 0.1 µM ([4]; compound 0.1 μM, human recombinant sEH, PHOME substrate, 37° C. 15 min) [%]	non-proliferative diabetic retinopathy symptoms (retinal capillary free pericytes, vascular leakage) [8]
Nc1nc2ccc(N(CCN3CCOCC3)C(=O)Nc3ccc(Cl)cc3)cc2s1 [Example 12, 1-(2-aminobenzo[d]thiazol-6-yl)-1-[2-(4-morpholinyl)ethyl]-3-(4-chlorophenyl)urea]	79.46 ± 0.68 * %	25.23 ± 1.63 * μg/g	reduce the water content	significantly reduce the immobility time	8.39	68.7	significantly inhibit	better than that of celecoxib	significantly prolong the paw withdrawal time	significantly lower than that of the model group	higher than that of the model group	–	–	–
O=C(Nc1ccc(Cl)cc1)Nc1nc2ccc(N(CCN3CCOCC3)C(=O)Nc3ccc(Cl)cc3)cc2s1 [Example 40, 1-{2-[3-(4-chlorophenyl)ureido]benzo[d]thiazol-6-yl}-1-[2-(4-morpholinyl)ethyl]-3-(4-chlorophenyl)urea]	–	–	–	significantly reduce the immobility time	–	–	significantly inhibit	better than that of celecoxib	significantly prolong the paw withdrawal time	–	–	9.96	43	significantly alleviated

From patent US20230219911A1, “BENZOTHIAZOLE DERIVATIVES AND USES THEREOF” (SHENYANG PHARMACEUTICAL UNIVERSITY, priority 2020, published 2023)
